Data on three compounds can be found in patent US20100279918A1, “Chimeric Constructs Between Cancer-Homing Peptides and Cell-Penetrating Peptides Coupled to Anticancer Drugs and/or Diagnostic Agent/Agents” (Burnham Institute for Medical Research, priority 2006, published 2010).

The test system of one data set is MCF-7 cells. As to the kind of experiment: Toxicity study (CellTiter-Glo). How it is done: FIG. 11. Cytotoxicity study of pVEC (SEQ ID NO:6) in MCF-7 cell line. Cells were exposed to different concentrations of pVEC solution in 150 μl of 1% FBS containing media and incubated for 2 h or 48 h at 37° C. The plate was cooled to room temperature, CellTiter-Glo® Reagent (150 μl) was added and the luminescence was measured. The percent of viable cells was compared to the non-treated cells.
FIG. 12. Cytotoxicity study of Cbl and Cbl conjugated peptides in MCF-7 cell line. Cells were exposed to different concentrations of Cbl, Cbl-pVEC (SEQ ID NO:6), Cbl-CREKA-pVEC (SEQ ID NO:22) and Cbl-PEGA-pVEC (SEQ ID NO:21) (0, 1, 5, 55, 100, 150, 200, 400 and 800 (only with Cbl) μM) solution in 150 μl of 1% FBS containing complete media and incubated for 3 h at 37° C. After that 150 μl of 10% FBS containing media was added and the cells were incubated additionally for 45 h at 37° C. (altogether 48 h). The plate was cooled to room temperature, CellTiter-Glo® Reagent (150 μl) was added and the luminescence was measured. The percent of viable cells was compared to the non-treated cells. IC50 values were calculated using GraphPad Prism 4 software.
MCF-7 and MDA-MB-231 cells (20 000 cells/well) were seeded in a 48 well plate two days before the experiment. The cells were exposed to drug in different concentration in full media containing 1% FBS for 3 h where after 10% FBS containing full media was added to achieve 5% FBS containing media and then incubated 45 or 69 h at 37° C. The plate was cooled to room temperature and CellTiter-Glo® Reagent (Promega) was added. The plate was incubated for 10 min at room temperature where after the luminescence was measured.

The subject of a further data set is tumor mice. The conditions noted are these: about 300 μg per mouse for 15 days; cited from earlier work.
The next data set deals with MDA-MB-231 cells. As to the kind of experiment: Toxicity study (CellTiter-Glo). The format is cell-based, human. How it is done: FIG. 13. Cytotoxicity study of Cbl and Cbl conjugated peptides in MDA-MB-231 cell line. […] (altogether 48 h). […] IC50 values were calculated using GraphPad Prism 4 software.
Data set [1] relates to MDA-MB-435 orthotopic xenograft tumors. In words: Treatment of mice bearing MDA-MB-435 tumors with Cbl-peptide conjugates (tumor growth). Type of data set: in vivo, nude Balb/c mice. The conditions noted are these: 15 μg Cbl-equivalent/mouse i.v. every other day, seven times; p<0.01 vs controls. How it is done:
FIG. 26. The inhibition of MDA-MB-435 tumor growth in mice with the Cbl-CREKA-pVEC (SEQ ID NO:22) conjugates. The MDA-MB-435 orthotopic xenografted mice (8 mice/group) were systemically treated with 15 μg of Cbl equivalent of Cbl-CREKA-pVEC (SEQ ID NO:22) and of the controls.
The orthotopic xenografted breast tumors were established by injecting 1×10^6 MDA-MB-435 human breast cancer cells into the mammary fat pad of nude Balb/c mice. Treatment started when mean tumor volumes reached about 100 mm^3. Mice with size-matched tumors were randomized into five groups (eight animals per group): Cbl-CREKA-pVEC (SEQ ID NO:22), Cbl plus CREKA-pVEC, Cbl-CREKA (SEQ ID NO:1), Cbl-pVEC (SEQ ID NO:6) and PBS. Mice were treated intravenously with 15 μg of Cbl-equivalent/mouse every other day for seven times. Tumor size was measured every three days. The mice were monitored for weight loss. The animal experiments reported here were approved by the Animal Research Committee of Burnham Institute for Medical Research.

The mark [2] stands for this setting: read-out: IC50 value (cytotoxicity), MCF-7, 3 h in 1% FBS media, then 45 h (altogether 48 h).
Where [3] appears, read: MDA-MB-231, 3 h in 1% FBS media, then 45 h (altogether 48 h), read-out: IC50 value (cytotoxicity).

Entries after “also recorded” stand apart in the source; their conditions may differ. Like-named read-outs stand apart in the source and are kept apart here. Where a SMILES comes first, the peptide text is derived from it. Bridges are numbered along the chain shown (N, C = ends). The star is where a group is joined. Chlorambucil = O=C(CCCc1ccc(N(CCCl)CCCl)cc1)*

Consider `O=C(O)CCCc1ccc(N(CCCl)CCCl)cc1` [Cbl, reference compound], for which the half-maximal inhibitory concentration (IC50) was determined as 128 µM in the data set with MCF-7 cells (Homo sapiens, MCF7, read-out: IC50 value (cytotoxicity)) and 164 µM with MDA-MB-231 cells (Homo sapiens, MDA-MB-231, read-out: IC50 value (cytotoxicity)). Also, the ED15d dose in the data set with tumor mice is 15 mg/kg.
Turning to `CC[C@H](C)[C@H](NC(=O)[C@H](CCCNC(=N)N)NC(=O)[C@H](CCCNC(=N)N)NC(=O)[C@H](CCCNC(=N)N)NC(=O)[C@H](CC(C)C)NC(=O)[C@@H](NC(=O)[C@@H](NC(=O)[C@H](CC(C)C)NC(=O)[C@H](CC(C)C)NC(=O)[C@@H]1CSSC[C@H](NC(=O)CCCc2ccc(N(CCCl)CCCl)cc2)C(=O)N2CCC[C@H]2C(=O)NCC(=O)N2CCC[C@H]2C(=O)N[C@@H](CCC(=O)O)C(=O)NCC(=O)N[C@@H](C)C(=O)NCC(=O)N1)[C@@H](C)CC)[C@@H](C)CC)C(=O)N[C@@H](CCCNC(=N)N)C(=O)N[C@@H](CCCCN)C(=O)N[C@@H](CCC(N)=O)C(=O)N[C@@H](C)C(=O)N[C@@H](Cc1c[nH]cn1)C(=O)N[C@@H](C)C(=O)N[C@@H](Cc1c[nH]cn1)C(=O)N[C@@H](CO)C(=O)N[C@@H](CCCCN)C(N)=O` [Cbl-PEGA-pVEC] (Chlorambucil-CPGPEGAGCLLIILRRRIRKQAHAHSK-NH2; disulfide 1-9), the IC50 with MCF-7 cells (setting [2]) was 29.9 µM; with MDA-MB-231 cells (setting [3]), 37.4 µM.
`CC[C@H](C)[C@H](NC(=O)[C@H](CCCNC(=N)N)NC(=O)[C@H](CCCNC(=N)N)NC(=O)[C@H](CCCNC(=N)N)NC(=O)[C@H](CC(C)C)NC(=O)[C@@H](NC(=O)[C@@H](NC(=O)[C@H](CC(C)C)NC(=O)[C@H](CC(C)C)NC(=O)[C@H](C)NC(=O)[C@H](CCCCN)NC(=O)[C@H](CCC(=O)O)NC(=O)[C@H](CCCNC(=N)N)NC(=O)[C@H](CS)NC(=O)CCCc1ccc(N(CCCl)CCCl)cc1)[C@@H](C)CC)[C@@H](C)CC)C(=O)N[C@@H](CCCNC(=N)N)C(=O)N[C@@H](CCCCN)C(=O)N[C@@H](CCC(N)=O)C(=O)N[C@@H](C)C(=O)N[C@@H](Cc1c[nH]cn1)C(=O)N[C@@H](C)C(=O)N[C@@H](Cc1c[nH]cn1)C(=O)N[C@@H](CO)C(=O)N[C@@H](CCCCN)C(N)=O` [Cbl-CREKA-pVEC] (Chlorambucil-CREKALLIILRRRIRKQAHAHSK-NH2): the IC50 in the data set on MCF-7 cells (setting [2]) was found to be 10.5 µM; in the data set with MDA-MB-231 cells (setting [3]), 8.2 µM. Moreover, the “inhibition of tumor growth compared with control groups” value in data set [1] is recorded as “significant decrease in tumor growth; also recorded: significant inhibition of tumor growth”.
